Biological target: FXR (Homo sapiens (Human), UniProt Q96RI1)
Assay: FXR EC50 (FXR agonist activity reported with each example)
Type: cell-based

Sequence of FXR (Q96RI1 262-486): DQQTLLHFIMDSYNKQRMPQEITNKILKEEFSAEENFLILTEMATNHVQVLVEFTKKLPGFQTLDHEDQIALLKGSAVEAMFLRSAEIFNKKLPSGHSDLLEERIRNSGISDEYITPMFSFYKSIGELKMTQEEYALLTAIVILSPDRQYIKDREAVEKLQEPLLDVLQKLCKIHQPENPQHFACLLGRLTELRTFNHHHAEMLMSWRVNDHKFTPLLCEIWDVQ

SMILES	EC50 [µM]
N#Cc1ccc(C(=O)O)c2ccc(C34CCC(OCc5c(-c6c(Cl)cncc6Cl)noc5C5CC5)(CC3)CC4)nc12 [Example 384, 8-cyano-2-(4-((5-cyclopropyl-3-(3,5-dichloropyridin-4-yl)isoxazol-4-yl)methoxy)bicyclo[2.2.2]octan-1-yl)quinoline-5-carboxylic acid]	0.82
COc1cc(C(=O)O)nc2ccc(OCC34CCC(/C=C/c5c(-c6c(Cl)cncc6Cl)noc5C5CC5)(CC3)CC4)cc12 [Example 508, (E)-6-((4-(2-(5-cyclopropyl-3-(3,5-dichloropyridin-4-yl)isoxazol-4-yl)vinyl)bicyclo[2.2.2]octan-1-yl)methoxy)-4-methoxyquinoline-2-carboxylic acid]	0.1
O=C(O)c1cccc(-n2cc(C34CCC(OCc5c(-c6c(Cl)cccc6Cl)noc5C5CC5)(CC3)CC4)nn2)c1 [Example 131, 3-(4-(4-((5-cyclopropyl-3-(2,6-dichlorophenyl)isoxazol-4-yl)methoxy)bicyclo[2.2.2]octan-1-yl)-1H-1,2,3-triazol-1-yl)benzoic acid]	0.46
O=C(O)c1ccc(OCC23CCC(OCc4c(-c5c(Cl)cncc5Cl)noc4C4CC4)(CC2)CC3)nc1 [Example 114, 6-((4-((5-cyclopropyl-3-(3,5-dichloropyridin-4-yl)isoxazol-4-yl)methoxy)bicyclo[2.2.2]octan-1-yl)methoxy)nicotinic acid]	0.14
O=C(O)c1ccc2nc(C34CCC(OCc5c(-c6ccccc6OC(F)(F)F)noc5C5CC5)(CC3)CC4)ncc2c1 [Example 62]	1.3
O=C(O)c1cccc(-c2noc(C34CCC(/C=C/c5c(-c6c(Cl)cccc6Cl)noc5C5CC5)(CC3)CC4)n2)c1 [Example 159, (E)-3-(5-(4-(2-(5-cyclopropyl-3-(2,6-dichlorophenyl)isoxazol-4-yl)vinyl)bicycle[2.2.2]octan-1-yl)-1,2,4-oxadiazol-3-yl)benzoic acid]	0.014
COc1cc(C(=O)O)cc(-c2noc(C34CCC(OCc5c(-c6c(Cl)cncc6Cl)noc5C5CC5)(CC3)CC4)n2)c1 [Example 239, 3-(5-(4-((5-cyclopropyl-3-(3,5-dichloropyridin-4-yl)isoxazol-4-yl)methoxy)bicyclo[2.2.2]octan-1-yl)-1,2,4-oxadiazol-3-yl)-5-methoxybenzoic acid]	0.079
COC(=O)c1ccc(-c2noc(C34CCC(OCc5c(-c6ccccc6C(F)(F)F)noc5C5CC5)(CC3)CC4)n2)cc1 [Example 34]	5.1
O=C(O)c1ccc2cc(C(O)C34CCC(OCc5c(-c6c(Cl)cccc6Cl)noc5C5CC5)(CC3)CC4)ccc2c1 (stereo not shown) [Example 126, 6-((4-((5-cyclopropyl-3-(2,6-dichlorophenyl)isoxazol-4-yl)methoxy)bicyclo[2.2.2]octan-1-yl)(hydroxy)methyl)-2-naphthoic acid]	0.6
O=C(O)c1cccc(-c2noc(C34CCC(OCc5c(-c6c(Cl)cccc6Cl)noc5C5CC5)(CC3)C4)n2)c1 [Example 221, 3-(5-((1r,4r)-4-((5-cyclopropyl-3-(2,6-dichlorophenyl)isoxazol-4-yl)methoxy)bicyclo[2.2.1]heptan-1-yl)-1,2,4-oxadiazol-3-yl)benzoic acid]	0.3
O=C(O)c1ncc(OCC23CCC(OCc4c(-c5c(Cl)cncc5Cl)noc4C4CC4)(CC2)CC3)cc1OCC(F)(F)F [Example 300, 5-((4-((5-cyclopropyl-3-(3,5-dichloropyridin-4-yl)isoxazol-4-yl)methoxy)bicyclo[2.2.2]octan-1-yl)methoxy)-3-(2,2,2-trifluoroethoxy)picolinic acid]	0.057
CC(C)Oc1cc(OCC23CCC(OCc4c(-c5c(Cl)cncc5Cl)noc4C4CC4)(CC2)CC3)cc(C(=O)O)c1 [Example 326]	0.017
COc1ccc(C(=O)O)cc1-c1noc(C23CCC(OCc4c(-c5c(Cl)cncc5Cl)noc4C4CC4)(CC2)CC3)n1 [Example 459, 3-(5-(4-((5-cyclopropyl-3-(3,5-dichloropyridin-4-yl)isoxazol-4-yl)methoxy)bicyclo[2.2.2]octan-1-yl)-1,2,4-oxadiazol-3-yl)-4-methoxybenzoic acid]	0.63

From patent publication US10730863B2, “Bridged bicyclic compounds as farnesoid X receptor modulators” (BRISTOL-MYERS SQUIBB COMPANY, priority 2017, dated 2020)
